Experimental data published in patent publication US20260256778A1 (AbbVie Inc., priority 2023, published 2026).
Values after ≈ are worked out from the molar mass of the structure shown. Where two headings read alike, the source gives them in different places.

Assays:
facial vitiligo area = test: 3D digital imaging substudy of facial vitiligo area (Example 3); assay type: in vivo, human; design: F-VASI, Wk 24: scale not given here; details: for percent reduction of facial vitiligo area from Baseline by 3D imaging / Treatment effect size, Cohen's d of 3D Imaging / Treatment effect size, Cohen's d of F-VASI: Week 24
Excerpt: Specifically, multiple stereoscopic images were captured by a proprietary optical 3D scanner for a subset of patients in the referenced study. The data acquisition procedure and determination of vitiligo area using the 3D platform were as follows: • 1. Subject was scanned, acquiring 2D raw color images with real time feedback to generate 3D gray low-resolution model • 2. Full resolution color model generated and uploaded to cloud • 3. Web application opened by investigator, who manually selected threshold for each region of face. • 4. The detected vitiligo area was measured and results reported
To accomplish these objectives, twenty-seven subjects were enrolled into the 3D imaging substudy across 6 clinical sites. Twenty-one subjects had high quality 3D images available at Week 24 for analysis. Subjects who enrolled in the 3D digital imaging substudy were randomized as per the main protocol. The demographics, including Fitzpatrick skin types, and baseline disease characteristics in the 3D imaging substudy are provided in Table 9. With reference to Table 9, the demographics were in general consistent with the overall study population.
The quality and completeness of each scan was assessed by a visual inspection of the resulting 3D image by the technician and/or investigator, utilizing Wood's lamp visualization to set a threshold at Baseline, defined as the intensity value used to distinguish which 3D pixels within the image belong to the vitiligo area or to the normal skin area. The threshold value determined by the investigator at Baseline remained constant and applied to all post-baseline 3D images during the treatment period to reflect changes in the pigmentation. Each 3D image included 10 predefined anatomic regions of the face: forehead, left eye, right eye, left lateral cheek/temple, left middle cheek, nose, right middle cheek, right lateral cheek/temple, upper lip, and chin. Results are presented as the sum of vitiligo area measurement (cm^2) across all anatomic regions of the face.

[1] = tested on: non-segmental vitiligo (NSV); details: for Percent CFB in F-VASI; LSMEAN (SE): Week 24, MMRM; for F-VASI 75; (%): Week 24, NRI
CXCL10 = test: Serum CXCL10 level in the Phase 2 study; assay type: in vivo, human; details: by week 2, all dose groups
Excerpt: (§1) No differences were apparent for active vs. stable subjects.

[2] = tested on: inflammatory chemotactic proteins (CXCL9 and 10) and T-cell activation markers (IL12B and TNFSF9); test: Serum type 1 inflammation biomarkers in the Phase 2 study; assay type: in vivo, human
Excerpt: as §1

[3] = Solubility of upadacitinib in different aqueous media at 37° C.; assay type: physicochemical
[4] = 22 mg QD, one representative subject, Baseline to Week 24
[5] = Placebo (N = 3) vs 6 mg (N = 7)
[6] = Placebo (N = 3) vs 11 mg (N = 6)
[7] = Placebo (N = 3) vs 22 mg (N = 5)
[8] = 6 mg QD, Week 24, change from baseline, 44 patients
[9] = 11 mg QD, Week 24, change from baseline, 45 patients
[10] = 22 mg QD, Week 24, change from baseline, 34 patients

## CC[C@@H]1CN(C(=O)NCC(F)(F)F)C[C@@H]1c1cnc2cnc3[nH]ccc3n12 [Upadacitinib, (3S,4R)-3-ethyl-4-(3H-imidazo[1,2-a]pyrrolo[2,3-e]pyrazin-8-yl)-N-(2,2,2-trifluoroethyl) pyrrolidine-1-carboxamide]
Facial vitiligo area; 6 mg QD, N 7
  % Change Facial Vitiligo Area by 3D Imaging at Week 24, Mean: −15.20%
  % Change Facial Vitiligo Area by 3D Imaging at Week 24, Median: −9.85%
Facial vitiligo area; 6 mg QD
  percent reduction of facial vitiligo area from Baseline by 3D imaging: 15.2%
Facial vitiligo area; 11 mg QD, N 6
  % Change Facial Vitiligo Area by 3D Imaging at Week 24, Mean: −34.96%
  % Change Facial Vitiligo Area by 3D Imaging at Week 24, Median: −37.38%
Facial vitiligo area; 11 mg QD
  percent reduction of facial vitiligo area from Baseline by 3D imaging: 34.96%
Facial vitiligo area; 22 mg QD, N 5
  % Change Facial Vitiligo Area by 3D Imaging at Week 24, Mean: −23.00%
  % Change Facial Vitiligo Area by 3D Imaging at Week 24, Median: −27.2%
Facial vitiligo area; 22 mg QD
  percent reduction of facial vitiligo area from Baseline by 3D imaging: 23%
Facial vitiligo area; [4]
  Cherry 3D imaging vitiligo area, % change: −27.2%
  F-VASI, % change: −24.62%
Facial vitiligo area; 22 mg QD, one representative subject, Baseline to Week 24, listed as upadacitinib
  Cherry 3D imaging vitiligo area, % change: −27.20%
Facial vitiligo area; 22 mg QD, one representative subject, Fitzpatrick Type III, baseline 215.84
  Cherry 3D imaging vitiligo area, Wk 24: 157.13 cm^2
Facial vitiligo area; 22 mg QD, one representative subject, baseline 1.3
  F-VASI, Wk 24: 0.98
Facial vitiligo area; 11 and 22 mg versus placebo, preliminary
  percent change from baseline in vitiligo extent score (VES) by 3D imaging evaluation: greater percent change from baseline
Facial vitiligo area; [5]
  Treatment effect size, Cohen's d of 3D Imaging: 0.50
  Treatment effect size, Cohen's d of F-VASI: 0.76
Facial vitiligo area; [6]
  Treatment effect size, Cohen's d of 3D Imaging: > 0.8
  Treatment effect size, Cohen's d of F-VASI: 0.13
Facial vitiligo area; Placebo (N = 3) vs 11 mg (N = 6), listed as UPA
  Treatment effect size, Cohen's d of 3D Imaging: 1.36
Facial vitiligo area; [7]
  Treatment effect size, Cohen's d of 3D Imaging: > 0.8
  Treatment effect size, Cohen's d of F-VASI: 0.61
Facial vitiligo area; Placebo (N = 3) vs 22 mg (N = 5), listed as UPA
  Treatment effect size, Cohen's d of 3D Imaging: 1.02
[1]; 6 mg
  VitiQoL LS mean change: −7.5%
[1]; 6 mg QD oral
  Percent CFB in F-VASI; LSMEAN (SE): −21.96 (5.162) Percent
[1]; 6 mg QD, Week 24
  CFB in VitiQoL Total Score; LSMEAN (SE): −7.5 (2.27)
  Percent CFB in T-VASI; LSMEAN (SE): −13.87 (3.332) Percent
  T-VASI 50; (%): 6.1%
  Δ vs PBO, CFB in VitiQoL Total Score: Δ = −1.9;
  Δ vs PBO, F-VASI 50: Δ = 6.6;
  Δ vs PBO, F-VASI 75: Δ = 6.9;
  Δ vs PBO, Percent CFB in F-VASI: Δ = −7.60;
  Δ vs PBO, Percent CFB in T-VASI: Δ = −7.45;
  Δ vs PBO, T-VASI 50: Δ = 3.7;
  Δ vs PBO, much better or a little better on PaGIC: Δ = 14.3%
  Δ vs PBO, much better or a little better on PhGIC: Δ = 18%
[1]; 6 mg QD, Week 24, N = 49
  Achieving much better or a little better on PaGIC (PaGIC-V score of 1 or 2), responders n: 17 n
  F-VASI 50; n: 8 n
  T-VASI 50; n: 3 n
  VNS score of 4 or 5, Responders n: 0 n
[1]; 6 mg QD, Week 24, N = 49, NRI
  F-VASI 75; n: 4 n
[1]; 6 mg QD
  F-VASI 75; (%): 8.2%
[1]; 6 mg QD, Week 24, change from baseline, 43 patients
  DLQI LS mean change: −1.4%
[1]; [8]
  HADS Anxiety LS mean change: −0.7%
  HADS Depression LS mean change: 0.2%
[1]; 6 mg, Week 52, As Observed, N = 38
  Percent CFB in F-VASI: −52.7%
[1]; 6 mg, Week 52, Intent-to-Treat, MMRM/NRI-MI, N = 49
  Percent CFB in F-VASI: −52.3%
[1]; 11 mg QD oral
  Percent CFB in F-VASI; LSMEAN (SE): −35.63 (5.297) Percent
[1]; 11 mg QD, Week 24
  CFB in VitiQoL Total Score; LSMEAN (SE): −3.7 (2.30)
  Percent CFB in T-VASI; LSMEAN (SE): −17.26 (3.414) Percent
  T-VASI 50; (%): 6.4%
  Δ vs PBO, CFB in VitiQoL Total Score: Δ = 1.9;
  Δ vs PBO, F-VASI 50: Δ = 29.3;
  Δ vs PBO, F-VASI 75: Δ = 17.8;
  Δ vs PBO, Percent CFB in F-VASI: Δ = −21.27;
  Δ vs PBO, Percent CFB in T-VASI: Δ = −10.84;
  Δ vs PBO, T-VASI 50: Δ = 3.8;
  Δ vs PBO, much better or a little better on PaGIC: Δ = 38.5%
  Δ vs PBO, much better or a little better on PhGIC: Δ = 37.8%
[1]; 11 mg QD, Week 24, N = 47
  Achieving much better or a little better on PaGIC (PaGIC-V score of 1 or 2), responders n: 26 n
  F-VASI 50; n: 18 n
  T-VASI 50; n: 3 n
  VNS score of 4 or 5, Responders n: 0 n
[1]; 11 mg QD, Week 24, N = 47, NRI
  F-VASI 75; n: 9 n
[1]; 11 mg QD
  F-VASI 75; (%): 19.1%
[1]; 11 mg QD, Week 24, change from baseline, 42 patients
  DLQI LS mean change: −1.2%
[1]; 11 mg QD, Week 24, change from baseline, 44 patients
  VitiQoL LS mean change: −3.7%
[1]; [9]
  HADS Anxiety LS mean change: 0.0%
  HADS Depression LS mean change: −0.3%
[1]; 11 mg, Week 52, As Observed, N = 38
  Percent CFB in F-VASI: −64.8%
[1]; 11 mg, Week 52, Intent-to-Treat, MMRM/NRI-MI, N = 47
  Percent CFB in F-VASI: −62.8%
[1]; 22 mg QD oral
  Percent CFB in F-VASI; LSMEAN (SE): −33.96 (5.793) Percent
[1]; 22 mg QD, Week 24
  Percent CFB in T-VASI; LSMEAN (SE): −20.69 (3.731) Percent
  T-VASI 50; (%): 11.6%
  VNS score of 4 or 5, Responders (%): (11.6) %
  Δ vs PBO, CFB in VitiQoL Total Score: Δ = −1.1;
  Δ vs PBO, F-VASI 50: Δ = 28.7;
  Δ vs PBO, F-VASI 75: Δ = 11.7;
  Δ vs PBO, Percent CFB in F-VASI: Δ = −19.60;
  Δ vs PBO, Percent CFB in T-VASI: Δ = −14.27;
  Δ vs PBO, T-VASI 50: Δ = 9.1;
  Δ vs PBO, much better or a little better on PaGIC: Δ = 41.1%
  Δ vs PBO, much better or a little better on PhGIC: Δ = 32%
[1]; 22 mg QD, Week 24, N = 43
  Achieving much better or a little better on PaGIC (PaGIC-V score of 1 or 2), responders n: 26 n
  F-VASI 50; n: 17 n
  T-VASI 50; n: 5 n
  VNS score of 4 or 5, Responders n: 5 n
[1]; 22 mg QD, Week 24, N = 43, NRI
  F-VASI 75; n: 6 n
[1]; 22 mg QD
  F-VASI 75; (%): 14.0%
[1]; [10]
  HADS Anxiety LS mean change: −0.3%
  HADS Depression LS mean change: −0.1%
  VitiQoL LS mean change: −6.6%
[1]; 22 mg QD, Week 24, change from baseline, 35 patients
  DLQI LS mean change: −2.2%
[1]; 22 mg, Week 52, As Observed, N = 29
  Percent CFB in F-VASI: −60.8%
[1]; 22 mg, Week 52, Intent-to-Treat, MMRM/NRI-MI, N = 43
  Percent CFB in F-VASI: −59.2%
CXCL10
  CXCL10 levels: reduced to those in healthy volunteers
[2]; 11 mg dose
  Inhibition of type 1 inflammation biomarkers: maximal inhibition was achieved
[2]; all upadacitinib doses, from week 2 through week 24, data not shown
  Change from baseline in CXCL9, CXCL10, IL12B and TNFSF9: Reductions from baseline were observed
[3]; 50 mM carbonate buffer, 37 °C, pH 9.11, aqueous buffer, thermodynamic from solid
  solubility: 199 ± 6 µg/mL (≈ 523 µM)
[3]; at low pH
  Solubility (in words): good solubility
